Assay results taken from US20090048112A1, “Novel Herbicides” (SYNGENTA LIMITED, priority 2005, published 2009).

Legend:
[1] = system: Monocotyledonous and dicotyledonous test plants; assay: Example B1: herbicidal action prior to emergence (pre-emergence), 500 g/ha; assay type: in vivo; settings: 13 days after application, 0 = no damage, 100 = plants completely dead
Experimental: Monocotyledonous and dicotyledonous test plants were sown in seed trays in standard compost. The trays were watered twice daily or as required. The chemicals were applied by track sprayer at the soil surface. The application was carried out with an aqueous suspension of the test substances, prepared as a formulation of 50% acetone in water with 0.5% Tween 20™ (CAS RN 9005-64-5), to achieve a field equivalent of 1000 l/ha. The application rate of the test substances was 500 g/ha. A visual assessment of the herbicidal effect was made at 13 days after application. The following percentage scale was used for assessment: 0, 5, 10, 20, 30, 40, 50, 60, 70, 80, 90, 95, 100 (where 0 is no damage to plants and 100 is plants are completely dead).

[2] = system: Monocotyledonous and dicotyledonous test plants; assay: Example B3: herbicidal action prior to emergence (pre-emergence), 96-cell seed trays, 1000 g/ha; assay type: in vivo; set-up: key: 0 is no damage to plant; 5 is total damage to plant; settings: 9 days after application; for AGSTE herbicidal effect (visual assessment, scale 0-5): Agrostis tenius (Colonial bentgrass); for AMARE herbicidal effect (visual assessment, scale 0-5): Amaranthus retroflexus (redroot pigweed); for DIGSA herbicidal effect (visual assessment, scale 0-5): Digitaria sanguinalis (hairy finger-grass); for POATR herbicidal effect (visual assessment, scale 0-5): Poa trivialis (rough blue grass); for SETIT herbicidal effect (visual assessment, scale 0-5): Setaria italica (foxtail millet)
Experimental: Monocotyledonous and dicotyledonous test plants were sown in sterilised standard soil in seed trays each with 96 cells. The seed trays were stored under controlled conditions in a climatic chamber for one day (cultivation at 23° C. during the day and 17° C. at night; 13 hours of light; 50-60% humidity). The chemicals were applied to the soil surface. The application was carried out with an aqueous suspension of the test substances, prepared as a formulation in water with 10% dimethyl sulfoxide (CAS RN 67-68-5), to achieve a field equivalent of 1000 l/ha. The application rate of the test substances was 1000 g/ha. The plants were grown on in the climatic chamber for 9 days (cultivation at 24° C. during the day and 19° C. at night; 13 hours of light; 50-60% humidity). A visual assessment of the herbicidal effect was made at 9 days after application. The following scale was used for assessment: 0, 1, 2, 3, 4 and 5 (where 0 is no damage to plant and 5 is total damage to plant).

Structure (SMILES) | ALOMY herbicidal effect (visual assessment, percentage scale) ([1]; Alopecurus myosuroides (slender foxtail)) | AMARE herbicidal effect (visual assessment, percentage scale) ([1]; Amaranthus retroflexus (redroot pigweed)) | ECHCG herbicidal effect (visual assessment, percentage scale) ([1]; Echinochloa crus-galli (barnyard grass)) | STEME herbicidal effect (visual assessment, percentage scale) ([1]; Stellaria media (chickweed)) | AGSTE herbicidal effect (visual assessment, scale 0-5) [2] | AMARE herbicidal effect (visual assessment, scale 0-5) [2] | DIGSA herbicidal effect (visual assessment, scale 0-5) [2] | POATR herbicidal effect (visual assessment, scale 0-5) [2] | SETIT herbicidal effect (visual assessment, scale 0-5) [2]
Cn1nc(OC(F)F)c(CS(=O)(=O)c2ncc(Cl)s2)c1C(F)(F)F [Compound 1.055] | 95% | 0% | 100% | 0% | 4 | 2 | 5 | 5 | 5
Cn1nc(C(F)(F)F)c(C[S+]([O-])c2ncc(Cl)s2)c1OCCCF (racemic) [Compound 1.103] | – | – | – | – | 5 | 4 | 5 | 5 | 4
Cn1nc(C(F)(F)F)c(CS(=O)(=O)c2ncc(Cl)s2)c1OCC(F)F [Compound 1.117] | – | – | – | – | 5 | 5 | 5 | 5 | 5
Cn1nc(C(F)(F)F)c(CSc2ncc(Cl)s2)c1OCCCF [Compound No. 1.102] | – | – | – | – | 5 | 2 | 4 | 0 | 2
CC(CF)Oc1c(CS(=O)(=O)c2ncc(Cl)s2)c(C(F)(F)F)nn1C (racemic) [Compound 1.133] | – | – | – | – | 5 | 5 | 5 | 5 | 5
Cn1nc(C(F)(F)F)c(C[S+]([O-])c2ncc(Cl)s2)c1OC(CF)CF (racemic) [Compound 1.113] | – | – | – | – | 5 | 5 | 5 | 4 | 5
Cn1cc(C(F)S(=O)(=O)c2ncc(Cl)s2)c(C(F)(F)F)n1 (stereo not shown) [Compound No. 1.110, 5-chloro-2-[fluoro-(1-methyl-3-trifluoromethyl-1H-pyrazol-4-yl)-methanesulfonyl]-thiazole] | – | – | – | – | 0 | 4 | 4 | 4 | 5
CC(Oc1c(CSc2ncc(Cl)s2)c(C(F)(F)F)nn1C)C(F)(F)F (racemic) [Compound No. 1.126] | – | – | – | – | 4 | 4 | 5 | 1 | 4
Cn1nc(C(F)(F)F)c(CS(=O)(=O)c2ncc(Cl)s2)c1S(C)(=O)=O [Compound No. 1.093] | – | – | – | – | 5 | 4 | 5 | 5 | 3
CC(Oc1c(CS(=O)(=O)c2ncc(Cl)s2)c(C(F)(F)F)nn1C)C(F)(F)F (racemic) [Compound 1.130] | – | – | – | – | 5 | 5 | 5 | 5 | 5
Cn1nc(C(F)(F)F)c(C[S+]([O-])c2ncc(Cl)s2)c1[S+](C)[O-] (single isomer, unassigned) [Compound No. 1.091] | – | – | – | – | 5 | 4 | 4 | 0 | 4
CC[S+]([O-])c1c(C[S+]([O-])c2ncc(Cl)s2)c(C(F)(F)F)nn1C (mixture of isomers) [Compound No. 1.078] | – | – | – | – | 5 | 4 | 5 | 5 | 5
C=C(F)COc1c(CS(=O)(=O)c2ncc(Cl)s2)c(C(F)(F)F)nn1C [Compound 1.125] | – | – | – | – | 5 | 5 | 5 | 5 | 5
Cn1cc(CS(=O)(=O)c2ncc(Cl)s2)c(C(F)(F)F)n1 [Compound 1.107] | – | – | – | – | 0 | 3 | 5 | 0 | 3
Cn1nc(C(F)(F)F)c(CSc2ncc(Cl)s2)c1OCC(F)F [Compound No. 1.115] | – | – | – | – | 5 | 3 | 5 | 0 | 3
Cn1cc(C[S+]([O-])c2ncc(Cl)s2)c(C(F)(F)F)n1 (racemic) [Compound 1.106] | – | – | – | – | 0 | 2 | 4 | 5 | 4
Cn1nc(C(F)(F)F)c(C[S+]([O-])c2ncc(C(F)F)s2)c1OCC(F)(F)F (racemic) [Compound 1.086] | – | – | – | – | 5 | 5 | 5 | 5 | 4
Cn1nc(C(F)(F)F)c(CS(=O)(=O)c2ncc(Cl)s2)c1OC(CF)CF [Compound 1.114] | – | – | – | – | 5 | 5 | 5 | 5 | 5
Cc1cnc(S(=O)(=O)Cc2c(C(F)(F)F)nn(C)c2OCC(F)(F)F)s1 [Compound 1.075] | – | – | – | – | 5 | 1 | 0 | 5 | 5
Cn1nc(C(F)(F)F)c(C[S+]([O-])c2ncc(Cl)s2)c1[S+](C)[O-] (single isomer, unassigned) [Compound No. 1.090] | – | – | – | – | 5 | 3 | 5 | 4 | 5
Cn1nc(C(F)(F)F)c(C[S+]([O-])c2ncc(Cl)s2)c1OCC(F)F (racemic) [Compound 1.116] | – | – | – | – | 5 | 5 | 5 | 5 | 5
CCS(=O)(=O)c1c(CS(=O)(=O)c2ncc(Cl)s2)c(C(F)(F)F)nn1C [Compound No. 1.081] | – | – | – | – | 5 | 5 | 0 | 0 | 4
Cn1nc(C(F)(F)F)c(C[S+]([O-])c2ncc(Cl)s2)c1S(C)(=O)=O (racemic) [Compound No. 1.092] | – | – | – | – | 5 | 3 | 5 | 3 | 4
Cn1nc(C(F)(F)F)c(CS(=O)(=O)c2ncc(Cl)s2)c1OCCCF [Compound 1.104] | – | – | – | – | 5 | 5 | 5 | 5 | 5
